# Source: US20220098251A1, “PEPTIDE TAGS FOR LIGAND INDUCED DEGRADATION OF FUSION PROTEINS” (DANA-FARBER CANCER INSTITUTE, INC., priority 2018, published 2022)
# Positions count from the first letter of the chain named. Names may count otherwise.
# B1: G416N: SALL4 with G416N point mutation in ZnF2 (protein)
# chain: ALYKHKCKYCSKVFGTDSSLQIHLRSHTGERPFVCSVCNHRFTTKGNLKVHFHRHPQVKAN
# modifications: left off: small tags and cut ends
# notes: SALL4 with G416N point mutation in ZnF2
# B2: S388N: SALL4 ZnF1-2 with S388N mutation in ZnF1 (SEQ ID NO: 84) (protein)
# chain: B1 chain with S11N, N39G
# B3: SALL4 ZnF1-2: degron tag SEQ ID NO: 27 (protein)
# chain: B1 chain with N39G
# B4: IKZF1 (SEQ ID NO: 18): non-naturally occurring degron tag of SEQ ID NO: 18 (protein)
# chain: RMLDASGEKMNGSHRDQGSSALSGVGGIRLPNGKLKCDICGIICIGPNVLMVHKRSHTGERPFQCNQCGASFTQKGNLLRHIKLHSGEKPFKCHLCNYACRRRDALTGHLRTHSVIKEETNHSEMAEDLCK
# How the values were obtained:
# eGFP-IKZF1Δ fusion = molecular target: T1, eGFP-IKZF1Δ fusion (Homo sapiens, UniProt Q13422); test: Cellular degradation assay of eGFP-IKZF1Δ reporter by flow cytometry; type: cell-based; conditions: Flip-In 293 cells, 5 h, eGFP/mCherry
# T1 construct: eGFP (followed by P2A); expressed in transfected cells
# T1 sequence (Q96SW2 whole entry partner, one chain of several, the tested form may be a part): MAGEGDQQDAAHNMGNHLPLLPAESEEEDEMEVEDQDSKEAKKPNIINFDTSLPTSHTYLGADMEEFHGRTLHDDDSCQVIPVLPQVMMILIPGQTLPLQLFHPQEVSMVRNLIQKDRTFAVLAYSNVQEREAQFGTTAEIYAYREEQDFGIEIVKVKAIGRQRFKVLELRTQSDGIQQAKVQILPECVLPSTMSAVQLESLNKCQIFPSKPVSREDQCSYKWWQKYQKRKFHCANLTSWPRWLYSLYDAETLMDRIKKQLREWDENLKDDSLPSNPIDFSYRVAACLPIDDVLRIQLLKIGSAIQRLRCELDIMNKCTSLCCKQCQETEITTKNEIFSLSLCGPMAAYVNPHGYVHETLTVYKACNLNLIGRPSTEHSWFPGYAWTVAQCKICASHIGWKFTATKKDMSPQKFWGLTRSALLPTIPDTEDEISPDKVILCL
# T1 sequence (Q16531 whole entry partner, one chain of several, the tested form may be a part): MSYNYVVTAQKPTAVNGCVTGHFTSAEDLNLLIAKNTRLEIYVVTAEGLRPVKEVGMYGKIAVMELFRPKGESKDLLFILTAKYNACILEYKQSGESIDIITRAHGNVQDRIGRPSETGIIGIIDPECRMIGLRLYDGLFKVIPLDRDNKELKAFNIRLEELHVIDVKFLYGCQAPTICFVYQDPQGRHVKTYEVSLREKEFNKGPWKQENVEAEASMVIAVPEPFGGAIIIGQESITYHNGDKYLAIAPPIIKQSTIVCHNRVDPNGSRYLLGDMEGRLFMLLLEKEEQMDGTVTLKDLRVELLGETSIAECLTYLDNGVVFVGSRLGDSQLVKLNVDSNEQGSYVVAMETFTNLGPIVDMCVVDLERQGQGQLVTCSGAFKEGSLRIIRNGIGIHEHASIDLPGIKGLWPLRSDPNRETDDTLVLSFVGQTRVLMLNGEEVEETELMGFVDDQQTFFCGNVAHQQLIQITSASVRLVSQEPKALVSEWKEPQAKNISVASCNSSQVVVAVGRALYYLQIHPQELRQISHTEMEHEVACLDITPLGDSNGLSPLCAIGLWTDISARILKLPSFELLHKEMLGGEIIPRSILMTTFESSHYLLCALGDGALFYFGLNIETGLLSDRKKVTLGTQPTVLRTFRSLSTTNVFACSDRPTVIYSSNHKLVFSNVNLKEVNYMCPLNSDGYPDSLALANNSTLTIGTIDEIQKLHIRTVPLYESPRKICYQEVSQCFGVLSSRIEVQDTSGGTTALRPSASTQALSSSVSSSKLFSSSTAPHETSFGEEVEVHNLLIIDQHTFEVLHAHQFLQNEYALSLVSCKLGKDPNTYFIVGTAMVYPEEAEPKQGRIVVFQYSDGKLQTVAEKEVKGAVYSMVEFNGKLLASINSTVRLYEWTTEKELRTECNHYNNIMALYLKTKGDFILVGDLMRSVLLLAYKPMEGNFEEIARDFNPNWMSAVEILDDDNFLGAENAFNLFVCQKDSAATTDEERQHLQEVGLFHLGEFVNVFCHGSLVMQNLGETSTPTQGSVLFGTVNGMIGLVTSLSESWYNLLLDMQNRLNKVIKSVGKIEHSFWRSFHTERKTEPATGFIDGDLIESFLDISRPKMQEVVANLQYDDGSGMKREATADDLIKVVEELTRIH
# Protocol: Following 2-3 passage cycle FACS (FACSAria™ II, BD) was used to enrich for cells expressing eGFP and mCherry.
# Signal from at least 3,000 events per well was acquired, and the eGFP and mCherry florescence monitored. Data were analyzed using FlowJo™ (FlowJo™, LCC). […] The eGFP protein abundance relative to mCherry was then quantified as a ten-fold amplified ratio for each individual cell using the formula: 10×eGFP/mCherry. The median of the ratio was then calculated per set, normalized to the median of the DMSO ratio.
# Quantitative assessment of cellular degradation of a IKZF1-EGFP reporter using flow cytometry analysis. Cells stably expressing IKZF1Δ-EGFP and mCherry were treated with increasing concentrations of the indicated molecules and the EGFP and mCherry signals followed using flow cytometry analysis. Data in this figure are presented as means±s.d. from four cell culture replicates (n=4).
# [1] = system: Kelly cells transiently transfected with Flag-hsSALL4; test: Western blot of Flag-hsSALL4 levels in Kelly cells treated with thalidomide; type: cell-based; conditions: 24 hours
# Protocol: Kelly cells were transiently transfected with hsSALL4^G416A or Flag-hsSALL4^G416N were treated with increasing concentrations of thalidomide or DMSO as a control. Following 24 hours of incubation, SALL4 (α-Flag) and GAPDH protein levels were assessed by western blot analysis (FIG. 4A). (See, Example 7 for western blot method.)
# Kelly cells transiently transfected with Flag-hsSALL4WT, Flag-hsSALL4G600A, or hsSALL4G600N were treated with increasing concentrations of thalidomide or DMSO as a control. Following 24 h of incubation, SALL4 (α-Flag) and GAPDH protein levels were assessed by western blot analysis (one representative experiment is shown out of three replicates).
# Cells were treated with compounds as indicated and incubated for 24 hours, or as indicated. Samples were run on 4-20% or Any kD™ SDS-PAGE Gels (Bio-rad), and transferred to polyvinylidene fluoride (PVDF) membranes using the iBlot® 2.0 dry blotting system (Thermo Fisher Scientific). Membranes were blocked with LI-COR® blocking solution (LI-COR®), and incubated with primary antibodies overnight, followed by three washes in LI-COR® blocking solution and incubation with secondary antibodies for one hour in the dark. After three final washes, the membranes were imaged on a LI-COR® fluorescent imaging station.
# DDB1ΔB-CRBN [2] = test: TR-FRET of SALL4 degron binding to CRBN; set-up: species or system human; conditions: for IMiD-dependent dimerization / binding affinity to CRBN: SALL4 degron tags, biochemical assays; for IMiD induced CRBN binding: purified proteins, SALL4 point mutants
# Protocol: Compounds in binding assays were dispensed into a 384-well microplate (Corning, 4514) using the D300e Digital Dispenser (HP) normalized to 1% DMSO and containing 100 nM biotinylated Strep-Avi-SALL4 (WT or mutant, see, FIG. 3A-FIG. 3K), 1 μM His6-DDB1ΔB-His6-CRBNBODIPY-Spycatcher and 4 nM terbium-coupled streptavidin (Invitrogen) in a buffer containing 50 mM Tris pH 7.5, 100 mM NaCl, 1 mM TCEP, 0.1% Pluronic F-68 solution (Sigma). Before TR-FRET measurements were conducted, the reactions were incubated for 15 minutes at room temperature (RT). After excitation of terbium fluorescence at 337 nm, emission at 490 nm (terbium) and 520 nm (boron-dipyrromethene (BODIPY)) were recorded with a 70 μs delay over 600 μs to reduce background fluorescence and the reaction was followed over 30×200 second cycles of each data point using a PHERAstar® FS microplate reader (BMG Labtech). The TR-FRET signal of each data point was extracted by calculating the 520/490 nm ratios. Data from three independent measurements (n=3), each calculated as an average of 5 technical replicates per well per experiment, was plotted and the half maximal effective concentrations EC50 values calculated using variable slope equation in GraphPad Prism 7. […] The resulting data were fitted as described previously. (Petzold et al., Nature 532:127-130 (2016)).
# [3] = system: Jurkat cells expressing individual ZFs in the Cilantro 2 protein degradation reporter; test: Drug dependent degradation of ZFs in Cilantro 2 protein degradation reporter lentivector; type: cell-based; conditions: Cilantro 2, Jurkat cells
# Source text: Next-generation sequencing of sorted cell populations encoding the ZF library was based on GFP expression. […] The experimental procedure was as described in Example 16.
# DDB1ΔB-CRBN [4] = molecular target: T2, DDB1ΔB-CRBN (Homo sapiens, UniProt Q96SW2); test: IKZF1Δ TR-FRET dimerization assay; type: binding; conditions: titration of IMiDs
# T2 construct: 3C protease site (N); made in house; host or cells: Trichoplusia ni High Five insect cells (baculovirus)
# T2 sequence (Q96SW2 whole entry, stated change not applied): as the sequence (Q96SW2 whole entry partner, one chain of several, the tested form may be a part) above
# Protocol: Compounds in dimerization assays were dispensed in a 384-well microplate (Corning, 4514) using D300e Digital Dispenser (HP) normalized to 2% DMSO into 80 nM biotinylated StrepII-avi-IKZF1Δ (See, Figure legends), 100 nM His6-DDB1ΔB-His6-CRBNBODIPY-Spycatcher and 2 nM terbium-coupled streptavidin (Invitrogen™) in a buffer containing 50 mM Tris pH 7.5, 200 mM NaCl, 0.1% Pluronic F-68 solution (Sigma) and 2% DMSO (4% DMSO final). Before TR-FRET measurements were conducted, the reactions were incubated for 15 min at RT. After excitation of terbium fluorescence at 337 nm, emission at 490 nm (terbium) and 520 nm (BODIPY) were recorded with a […] to reduce background fluorescence and the reaction was followed over 30 200 second cycles of each data point using a PHERAstar® FS microplate reader (BMG Labtech). The TR-FRET signal of each data point was extracted by calculating the 520/490 nm ratio. The 520/490 nm ratios in IKZF1Δ TR-FRET assays were plotted to calculate or IC50 (for compound titrations) using GraphPad Prism 7 variable slope equation. The standard deviation in IKZF1Δ TR-FRET compound titrations was calculated from three independent replicates (n=3), or as an average of 5 technical replicates of single experiment for unlabeled protein titrations.
# Titration of the indicated molecules to DDB1ΔB-CRBNSPYCATCHER-BODIPY, Terbium-streptavidin and IKZF1Δbiotin. […]
molecule,measurement,setting,value
O=C1CCC(N2C(=O)c3ccccc3C2=O)C(=O)N1 (stereo not drawn) [thalidomide],degradation of eGFP-IKZF1Δ fusion,eGFP-IKZF1Δ fusion,potent degradation
Q595H: SALL4 ZnF4 with mutation of glutamine 595 residue,protein degradation in cells,[1],no effect at the ability of the protein product to be degraded
same,IMiD-dependent dimerization / binding affinity to CRBN,DDB1ΔB-CRBN [2],reduced binding affinity
G416A: SALL4 with G416A point mutation in ZnF2,protein degradation in cells,[1],disable degradation in cells
same,IMiD induced CRBN binding,DDB1ΔB-CRBN [2],abrogated IMiD induced CRBN binding
CC220-2: zinc finger degron MQCEICGFTCRRAEELNTHLNKH (SEQ ID NO: 186),degradation by iberdomide relative to control sequences,[3],more efficiently degraded by iberdomide (aka CC-220) than the indicated control sequences
Nc1cccc2c1CN(C1CCC(=O)NC1=O)C2=O (stereo not drawn) [lenalidomide],degradation of eGFP-IKZF1Δ fusion,eGFP-IKZF1Δ fusion,potent degradation
Nc1cccc2c1C(=O)N(C1CCC(=O)NC1=O)C2=O (stereo not drawn) [pomalidomide],degradation of eGFP-IKZF1Δ fusion,eGFP-IKZF1Δ fusion,potent degradation
CC220-3: zinc finger degron FYCKQCGANFSRWEELYNHLKAH (SEQ ID NO: 187),degradation by iberdomide relative to control sequences,[3],more efficiently degraded by iberdomide (aka CC-220) than the indicated control sequences
CC220-1: zinc finger degron FYCTQCGAAFDRWEELYNHLLNH (SEQ ID NO: 185),degradation by iberdomide relative to control sequences,[3],more efficiently degraded by iberdomide (aka CC-220) than the indicated control sequences
B1,protein degradation in cells,[1],disable degradation in cells
same,IMiD induced CRBN binding,DDB1ΔB-CRBN [2],abrogated IMiD induced CRBN binding
B2,IMiD induced CRBN binding,DDB1ΔB-CRBN [2],maintained IMiD induced CRBN binding
B3,IMiD-dependent dimerization / binding affinity to CRBN,DDB1ΔB-CRBN [2],sufficient to induce efficient dimerization
B4,dimerization between CRBN-DDB1ΔB and IKZF1Δ,DDB1ΔB-CRBN [4],Potent dimerization
